Source: patent US4897426A, “Method for blocking calcium channels” (New York University, priority 1989, dated 1990)
Where two headings read alike, the source gives them in different places.

Columns and labels:
[1] = test system: low-threshold calcium channels (LTCC); assay: Intracellular recording of low-threshold calcium rebound spike in inferior olivary cells of brain slices (LTCC blockage); assay type: cell-based, guinea pig
[2] = test system: bovine platelets; conditions: cited from earlier work
[3] = test system: high-threshold calcium conductance (HTCC); conditions: 10^-4 M butanol; sodium channel blocked by tetrodotoxin
[4] = read-out: Blood level; one or two drinks of an alcohol-containing beverage; cited from earlier work
[5] = in vivo; cited from earlier work
[6] = test system: rat brain synaptic membrane vesicles; conditions: 10^-1 M; cited from earlier work
[7] = test system: synaptosomes isolated from rat brains; conditions: ethanol 2.5×10^-2 -1.5×10^-1 M; cited from earlier work
[8] = test system: tremor; conditions: cited from earlier work
[9] = test system: tremor; assay: Harmaline-induced tremor, electromyogram of left platysma muscle; assay type: in vivo, Sprague-Dawley rats
Protocol: In order to analyze the effects of LTCC-blocking agents in vivo, octanol was administered to rats. Alcohols were diluted with physiological saline and sonicated to ensure mixing to create a concentration of alcohol around the neurons equivalent to 10^-6 M (at most). The alcohol was administered intraperitoneally at a concentration of to 10 mM. […] (Harmaline is available from Sigma Chemical Co., St. Louis, M.) The thus-induced tremor has a periodicity similar to physiological or enhanced physiological tremor.
Therefore, study of I.O. cells of mammals in which tremor has been induced with harmaline provides an excellent in vivo model for studying tremor response in mammals.
Tremor can be measured by electromyogram conducted according to Buchthal, F., et al., Acta Physio. Scand. 39: 83-104, 1957, incorporated by reference.
The electric activity in the left platysma muscle of 278 to 300 g Sprague-Dawley rats (from Taconic Farms, Germantown, N.Y.) was recorded differentially using two teflon-coated stranded silver wires (2 mm of wire exposed) placed in the belly of the muscle. The electromyogram (emg) was recorded throughout the experiment and the data were analyzed at the following times: (1) before administration of any drugs; (2) after intraperitoneal injection of 15 mg/kg harmaline; and (3) after subsequent intraperitoneal injection of 2 cc of 10 mM 1-octanol (99% octanol sonicated in physiological saline) given to create a concentration of 9.3 micrograms/g of rat body weight or 7×10^-5 M in the vicinity of the neuronal cells (if all the alcohol was to be absorbed, and none metabolized). The emg was smoothed and differentiated (to further decrease the background noise) using a Nicolet Explorer Model 4060 digital oscilloscope (from Nicolet Instrument Corp., Madison, Wis.). This instrument was also used to obtain autocorrelograms of 800-ms sections of the emg's. Autocorrelograms were obtained by superimposing 800-ms sections of the emg signals. The emerging patterns (if any) can be used to determine frequency and amplitude characteristics of the emg that may not be readily discernible from the naked emg signal.

[10] = test system: squid axons; conditions: octanol 10^-4 M; cited from earlier work
[11] = test system: LTCC; assay: Voltage clamp study of LTCC in I.O. neurons; assay type: cell-based, guinea pig; conditions: octanol 10^-6 M; depolarization steps of 5 mV from holding potential -80 mV
Description: Adult Hartley guinea pigs (400-600 g) from Camm Research Institute, Wayne, N.J. were decapitated, after ether anesthesia, using a small animal guillotine. Immediately thereafter, two longitudinal sections were made along the lateral edge of the squamous portion of the occipital bone. The resulting bone slab was cut transversely, and pulled caudalward to expose the cerebellum and brain stem. […] It was then transected longitudinally in a parasagittal plane and fixed to a Vibratome Model G plate (available from Ted Pella, Inc., Tustin, Calif.) in order to obtain thin longitudinal sections. From a single brain stem, six 300-micron slices could be obtained. Following sectioning, the slices were incubated in Ringer's solution for approximately one hour. The bathing medium was kept at room temperature and a mixture of 95% O2 and 5% CO2 was bubbled into the bath during this period. Brain stem slices were removed from the incubation bath after one hour but could be kept in good condition in the bath for periods of time up to 24 hours. […]
The results presented in this Example were recorded in I.O. neurons from different parts of the nucleus. […] In these experiments, the ionic current across the membrane was measured after a voltage clamp pulse was applied across the membrane. […]

[12] = Solubility in aqueous media; assay type: physicochemical; conditions: relative to most effective concentration for blocking LTCC
[13] = complete blockage of LTCC, for hexanol through decanol nominal, 10^-6 M at most (not fully soluble)
[14] = harmaline 15 mg/kg i.p., no alcohol
[15] = 2 cc of 10 mM 1-octanol i.p. after harmaline 15 mg/kg i.p.

CCCCO [butanol]
Inhibition of the LTCC or rebound spike [1]: inhibition of the LTCC or rebound spike | Preferred highest molar concentration / operative range for substantial and total blockage of LTCC: To About [1]: ~10^-6 | Inhibition of calcium mobilization ([2]; 5×10^-2 M): inhibitors of calcium mobilization | Effect on the HTCC [3]: absence of any effect on the HTCC

CCCCCCCCCCO [decanol]
Preferred highest molar concentration / operative range for substantial and total blockage of LTCC: From About [1, 13]: ~10^-6 M

CCO [ethanol]
concentration [4]: ~10000 µM | Intoxicating and addictive properties [5]: well-known | Preferred highest molar concentration / operative range for substantial and total blockage of LTCC: From About [1]: ~10^-3 | Preferred highest molar concentration / operative range for substantial and total blockage of LTCC: To About [1]: ~10^-4 | Inhibition of calcium influxes [6]: inhibited calcium influxes | Inhibition of voltage-dependent calcium uptake [7]: inhibited voltage-dependent calcium uptake

COc1ccc2c3c([nH]c2c1)C(C)=NCC3 [harmaline, reference compound]
Induction of tremor in mammals (known) [8]: known to induce tremor in mammals | Tremor induction ([9]; harmaline 15 mg/kg i.p.): periods of generalized tremor | Degree of autocorrelation of emg [9, 14]: high degree of autocorrelation | Dominant frequency of tremor [9, 14]: 7.5 Hz

CCCCCCCO [heptanol]
Preferred highest molar concentration / operative range for substantial and total blockage of LTCC: From About [1, 13]: ~10^-6 M

CCCCCCO [hexanol]
Preferred highest molar concentration / operative range for substantial and total blockage of LTCC: From About [1, 13]: ~10^-6 M | Inhibition of calcium mobilization ([2]; 5×10^-3 (unit not given)): inhibitors of calcium mobilization

CCCCCCCCCO [nonanol]
Preferred highest molar concentration / operative range for substantial and total blockage of LTCC: From About [1, 13]: ~10^-6 M

CCCCCCCCO [octanol, 1-octanol]
Blockage of calcium-dependent rebound potentials (LTCC) ([1]; 10^-6 M octanol in bath, sodium spike blocked with 10^-6 M tetrodotoxin): complete blockage of the calcium-dependent rebound potentials | Blockage of the rebound calcium spike following membrane hyperpolarization ([1]; 10^-6 M octanol, hyperpolarizing square current pulse, 10^-6 M tetrodotoxin): blocked | Preferred highest molar concentration / operative range for substantial and total blockage of LTCC: From About [1, 13]: ~10^-6 M | Observed intracellular calcium concentration [10]: apparent increase in the observed intracellular calcium concentration | Blockage of low-threshold calcium ionic current [11]: completely blocked the ionic conductance | Solubility in aqueous media [12]: corresponds closely to the most effective concentration for blocking the LTCC | Baseline muscle activity [9, 15]: reduced below control levels | Dominant frequency of emg [9, 15]: 10 Hz | Tremor after harmaline and alcohol [9, 15]: the tremor stopped

CCCCCO [pentanol]
Preferred highest molar concentration / operative range for substantial and total blockage of LTCC: From About [1, 13]: ~10^-6 M
